Measured values as given in patent US9522888B2, “Substituted bicyclic compounds” (BRISTOL-MYERS SQUIBB COMPANY, priority 2014, dated 2016).
pEC50, pIC50: −log10 of the molar value.

How the values were obtained:
human S1P1 = human S1P1 (Homo sapiens (Human), UniProt P21453); assay: S1P1 binding assay (33P-S1P radioligand competition, CHO cell membranes); conditions: phosphate examples; read-out: S1P1 Binding
Procedure: Membranes were prepared from CHO cells expressing human S1P1. Cells pellets (1×10^9 cells/pellet) were suspended in buffer containing 20 mM HEPES (4-(2-hydroxyethyl)-1-piperazineethanesulfonic acid), pH 7.5, 50 mM NaCl, 2 mM EDTA (Ethylenediaminetetraacetic acid) and Protease Inhibitor cocktail (Roche), and disrupted on ice using the Polytron homogenizer. The homogenate was centrifuged at 20,000 rpm (48,000 g) and the supernatant was discarded. The membrane pellets were resuspended in buffer containing 50 mM HEPES, pH 7.5, 100 mM NaCl, 1 mM MgCl2, 2 mM EDTA and stored in aliquots at −80° C. after protein concentration determination.

[1] = target: S1P1 (membranes prepared from S1P1/CHO cells) (Homo sapiens (Human), UniProt P21453); assay: Receptor [35S] GTPγS binding assay (S1P1 GTPγS); assay type: biochemical; conditions: phosphate examples; read-out: S1P1 GTPγS
S1P1 (membranes prepared from S1P1/CHO cells), sequence (P21453 whole entry): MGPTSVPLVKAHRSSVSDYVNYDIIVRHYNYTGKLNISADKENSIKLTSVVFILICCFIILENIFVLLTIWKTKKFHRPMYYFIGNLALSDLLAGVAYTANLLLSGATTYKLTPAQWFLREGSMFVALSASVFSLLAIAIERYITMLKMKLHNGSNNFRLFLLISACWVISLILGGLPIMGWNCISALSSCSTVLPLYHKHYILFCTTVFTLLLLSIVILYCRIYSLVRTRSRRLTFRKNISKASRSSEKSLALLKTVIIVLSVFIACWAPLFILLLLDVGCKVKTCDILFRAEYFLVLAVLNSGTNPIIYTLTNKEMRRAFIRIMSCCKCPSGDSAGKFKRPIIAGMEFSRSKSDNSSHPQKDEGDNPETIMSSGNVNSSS
Procedure: (§1) Receptor [^35S] GTPγS Binding Assays: (S1P1 GTPγS/S1P3 GTPγS)
Compounds were loaded in a 384 Falcon v-bottom plate (0.5 μl/well in a 11 point, 3-fold dilution). Membranes prepared from S1P1/CHO cells or EDG3-Gal5-bla HEK293T cells (EDG3 equivalent S1P3) were added to the compound plate (40 μl/well, final protein 3 μg/well) with MULTIDROP®. [^35S] GTP (1250 Ci/mmol, Perkin Elmer) was diluted in assay buffer: 20 mM HEPES, pH7.5, 10 mM MgCl2, 150 mM NaCl, 1 mM EGTA (ethylene glycol tetraacetic acid), 1 mM DTT (Dithiothreitol), 10 μM GDP, 0.1% fatty acid free BSA, and 10 μg/ml Saponin to 0.4 nM. 40 μl of the [^35S] GTP solution was added to the compound plate with a final concentration of 0.2 nM. The reaction was kept at room temperature for 45 min. At the end of incubation, all the mixtures in the compound plate were transferred to Millipore 384-well FB filter plates via the VELOCITY11® Vprep liquid handler. The filter plate was washed with water 4 times by using the manifold Embla plate washer and dried at 60° C. for 45 min. MicroScint 20 scintillation fluid (30 μl) was added to each well for counting on the Packard TOPCOUNT®. […]

[2] = target: S1P3 (membranes prepared from EDG3-Gal5-bla HEK293T cells) (Homo sapiens (Human), UniProt Q99500); assay: Receptor [35S] GTPγS binding assay (S1P3 GTPγS); assay type: biochemical; conditions: phosphate examples; read-out: S1P3 GTPγS
S1P3 (membranes prepared from EDG3-Gal5-bla HEK293T cells), sequence (Q99500 whole entry): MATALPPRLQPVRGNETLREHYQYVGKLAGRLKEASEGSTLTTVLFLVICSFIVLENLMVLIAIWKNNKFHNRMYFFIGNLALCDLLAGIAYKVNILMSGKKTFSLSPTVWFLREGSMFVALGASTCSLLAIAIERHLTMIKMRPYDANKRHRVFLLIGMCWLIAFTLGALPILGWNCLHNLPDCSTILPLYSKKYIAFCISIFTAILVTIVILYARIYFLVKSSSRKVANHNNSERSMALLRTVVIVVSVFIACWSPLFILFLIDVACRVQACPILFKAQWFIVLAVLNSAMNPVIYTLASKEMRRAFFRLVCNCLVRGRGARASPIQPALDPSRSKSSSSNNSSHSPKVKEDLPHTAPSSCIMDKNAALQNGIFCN
Procedure: as §1
Compounds were loaded in a 384 Falcon v-bottom plate (0.5 μl/well in a 11 point, 3-fold dilution). Membranes prepared from S1P1/CHO cells or EDG3-Gal5-bla HEK293T cells (EDG3 equivalent S1P3) were added to the compound plate (40 μl/well, final protein 3 μg/well) with MULTIDROP®. [^35S] GTP (1250 Ci/mmol, Perkin Elmer) was diluted in assay buffer: 20 mM HEPES, pH7.5, 10 mM MgCl2, 150 mM NaCl, 1 mM EGTA (ethylene glycol tetraacetic acid), 1 mM DTT (Dithiothreitol), 10 μM GDP, 0.1% fatty acid free BSA, and 10 μg/ml Saponin to 0.4 nM. 40 μl of the [^35S] GTP solution was added to the compound plate with a final concentration of 0.2 nM. The reaction was kept at room temperature for 45 min. At the end of incubation, all the mixtures in the compound plate were transferred to Millipore 384-well FB filter plates via the VELOCITY11® Vprep liquid handler. The filter plate was washed with water 4 times by using the manifold Embla plate washer and dried at 60° C. for 45 min. MicroScint 20 scintillation fluid (30 μl) was added to each well for counting on the Packard TOPCOUNT®.
A smaller value for GTPγS S1P1 EC50 value indicated greater activity for the compound in the GTPγS S1P1 binding assay. A larger value for the GTPγS S1P3 EC50 value indicated less activity in the GTPγS S1P3 binding assay. […] Thus the compounds of the present invention may be used in treating, preventing, or curing various S1P1 receptor-related conditions while reducing or minimizing the side effects due to S1P3 activity. The selectivity of the compounds of the present invention indicate their potential use in treating, preventing, or curing autoimmune and inflammatory diseases such as multiple sclerosis, rheumatoid arthritis, inflammatory bowel disease, lupus, psoriasis, or vascular diseases, while reducing or minimizing possible side effects due to S1P3 activity. Other potential uses of the compounds of the present invention include minimizing or reducing rejection of transplanted organs, while reducing or minimizing side effects due to S1P3 activity.

hS1P1/CHO cells = hS1P1/CHO cells (Homo sapiens (Human), UniProt P21453); assay: hS1P1 ERK phosphorylation (S1P1 pERK); assay type: cell-based; conditions: phosphate examples
hS1P1/CHO cells, sequence (P21453 whole entry): as the sequence (P21453 whole entry) above
Procedure: hS1P1 ERK Phosphorylation (S1P1 pERK)
hS1P1/CHO cells were plated into BD Amine 384-well plates the day before the assay. On the day of the assay, growth medium was removed and replaced with serum-free medium (Ham's F-12 Invitrogen) and incubated for 2 hours. Test compounds pre-diluted in HBSS (Gibco)/20 mM HEPES (Gibco) were transferred to the cell plates and incubated for 7 minutes at 37° C. Cells were lysed in lysis buffer (Perkin Elmer) and phospho-ERK was measured using the SureFire pERK kit (Perkin Elmer) as described by the manufacturer. Data was plotted as percentage activation of the test compound relative to the efficacy of 10 μM S1P.

human S1P1, sequence (P21453 whole entry): as above

Row | pIC50 (human S1P1) | pEC50 [1] | pEC50 [2] | pEC50 (hS1P1/CHO cells) | Compound
1 | 7.00 to 8.00 | 7.00 to 8.00 | < 6.20 | > 8.00 | NC1(COP(=O)(O)O)CC[C@H](c2ccc3c(c2)CC[C@@H](c2ccccc2)C3)C1 (single isomer, unassigned) [compound 570]
2 | 6.00 to 7.00 | 6.00 to 7.00 | < 6.20 | 7.00 to 8.00 | C=CCOCCO[C@@H]1CCc2cc(C3CCC(N)(COP(=O)(O)O)C3)ccc2C1 (single isomer, unassigned) [compound 579]
3 | > 8.00 | 7.00 to 8.00 | < 6.20 | > 8.00 | N[C@@]1(COP(=O)(O)O)CC[C@@H](c2ccc3c(c2)CC[C@H](OCCOc2ccccc2)C3)C1 (single isomer, unassigned) [compound 582]
4 | > 8.00 | 7.00 to 8.00 | < 7.00 | > 8.00 | N[C@@]1(COP(=O)(O)O)CC[C@@H](c2ccc3c(c2)CC[C@H](OCCOCc2cccs2)C3)C1 (single isomer, unassigned) [compound 589]
5 | > 8.00 | 7.00 to 8.00 | < 6.20 | 7.00 to 8.00 | COc1ccc(CC[C@@H]2CCc3cc(C4CCC(N)(COP(=O)(O)O)C4)ccc3C2)cc1 (single isomer, unassigned) [compound 593]
6 | > 8.00 | > 8.00 | < 6.20 | 7.00 to 8.00 | COCCCCCC[C@H]1CCc2cc(C3CCC(N)(COP(=O)(O)O)C3)ccc2C1 (single isomer, unassigned) [compound 597]
7 | > 8.00 | > 8.00 | < 6.20 | > 8.00 | COCCCCC[C@@H]1CCc2cc(C3CCC(N)(COP(=O)(O)O)C3)ccc2C1 (single isomer, unassigned) [compound 599]
8 | > 8.00 | 6.00 to 7.00 | < 7.00 | > 8.00 | C=CCOCCC[C@@H]1CCc2cc(C3CCC(N)(COP(=O)(O)O)C3)ccc2C1 (single isomer, unassigned) [compound 601]
9 | 6.00 to 7.00 | 6.00 to 7.00 | < 6.20 | 7.00 to 8.00 | N[C@@]1(COP(=O)(O)O)CC[C@@H](c2ccc3c(c2)CC[C@H](CCc2ccc4ccccc4n2)C3)C1 (single isomer, unassigned) [compound 604]
10 | 7.00 to 8.00 | 7.00 to 8.00 | < 6.20 | > 8.00 | N[C@@]1(COP(=O)(O)O)CC[C@@H](c2ccc3c(c2)CC[C@H](CCc2cccnc2)C3)C1 (single isomer, unassigned) [compound 606]
11 | 6.00 to 7.00 | 6.00 to 7.00 | < 6.20 | 7.00 to 8.00 | COc1cccc(F)c1CC[C@H]1CCc2cc([C@@H]3CC[C@@](N)(COP(=O)(O)O)C3)ccc2C1 (single isomer, unassigned) [compound 607]
12 | > 8.00 | > 8.00 | < 6.20 | > 8.00 | COc1cc(CC[C@H]2CCc3cc([C@@H]4CC[C@@](N)(COP(=O)(O)O)C4)ccc3C2)ccc1F (single isomer, unassigned) [compound 608]
13 | 7.00 to 8.00 | 7.00 to 8.00 | < 6.20 | > 8.00 | COc1ccc(F)c(CC[C@H]2CCc3cc([C@@H]4CC[C@@](N)(COP(=O)(O)O)C4)ccc3C2)c1 (single isomer, unassigned) [compound 609]
14 | > 8.00 | > 8.00 | < 6.20 | > 8.00 | COC(C)CCCCC1CCc2cc([C@H]3CC[C@](N)(COP(=O)(O)O)C3)ccc2C1 (single isomer, unassigned) [compound 611]
15 | 6.00 to 7.00 | – | < 6.20 | 7.00 to 8.00 | Cn1cc(COC[C@@H]2CCc3cc([C@H]4CC[C@](N)(COP(=O)(O)O)C4)ccc3C2)cn1 [compound 471]
16 | > 8.00 | – | < 6.20 | 7.00 to 8.00 | N[C@]1(COP(=O)(O)O)CC[C@H](c2ccc3c(c2)CC[C@@H](COCc2ccsc2)C3)C1 [compound 473]
17 | > 8.00 | 7.00 to 8.00 | – | > 8.00 | Cc1cc(COC[C@@H]2CCc3cc([C@H]4CC[C@](N)(COP(=O)(O)O)C4)ccc3C2)sc1C [compound 488]
18 | > 8.00 | 7.00 to 8.00 | – | > 8.00 | CCCSC[C@H]1CCc2cc([C@H]3CC[C@](N)(COP(=O)(O)O)C3)ccc2C1 [compound 502]
19 | 6.00 to 7.00 | – | < 6.20 | 7.00 to 8.00 | N[C@]1(COP(=O)(O)O)CC[C@H](c2ccc3c(c2)CC[C@H](c2ccncc2)C3)C1 [compound 574]
20 | – | > 8.00 | < 7.00 | > 8.00 | N[C@@]1(COP(=O)(O)O)CC[C@@H](c2ccc3c(c2)CC[C@@H](OCCOc2ccccc2)C3)C1 [compound 583]
21 | 5.00 to 6.00 | – | < 6.20 | 6.00 to 7.00 | N[C@@]1(COP(=O)(O)O)CCC(c2ccc3c(c2)CN(CCCc2ccccc2)C3=O)C1 (stereo partly drawn) [compound 613]
22 | – | 6.00 to 7.00 | < 6.20 | 7.00 to 8.00 | CCCCNC(=O)OC1CCc2cc([C@H]3CC[C@@](N)(COP(=O)(O)O)C3)ccc2C1 (stereo partly drawn) [compound 625]
23 | – | > 8.00 | < 6.20 | > 8.00 | CCCCN(C)C(=O)OC1CCc2cc([C@H]3CC[C@](N)(COP(=O)(O)O)C3)ccc2C1 (stereo partly drawn) [compound 628]
24 | > 8.00 | – | < 6.20 | 6.00 to 7.00 | CCCCC1CCCC2(CCc3cc([C@H]4CC[C@](N)(COP(=O)(O)O)C4)ccc3C2)O1 (stereo partly drawn) [compound 630]
25 | 7.00 to 8.00 | – | < 6.20 | 7.00 to 8.00 | N[C@]1(COP(=O)(O)O)CC[C@H](c2ccc3c(c2)CCC2(CCCCO2)C3)C1 (stereo partly drawn) [compound 634]
26 | – | 6.00 to 7.00 | < 6.20 | 7.00 to 8.00 | CCCC/C=C/C1=Cc2ccc([C@H]3CC[C@](N)(COP(=O)(O)O)C3)cc2CC1 [compound 647]
27 | 7.00 to 8.00 | 6.00 to 7.00 | – | 7.00 to 8.00 | CCCCC=C[C@H]1CCc2cc([C@H]3CC[C@](N)(COP(=O)(O)O)C3)ccc2C1 [compound 649]

Row | Compound | pIC50 (human S1P1) | pEC50 [1] | pEC50 [2] | pEC50 (hS1P1/CHO cells)
28 | CCCCCOC[C@@H]1COc2cc([C@H]3CC[C@](N)(COP(=O)(O)O)C3)ccc2O1 [Example 412, ((1R,3S)-1-amino-3-((R)-2-((pentyloxy)methyl)-2,3-dihydrobenzo[b][1,4]dioxin-6-yl)cyclopentyl)methyl dihydrogen phosphate] | > 8.00 | > 8.00 | < 6.20 | > 8.00
